Data set [1] can be described thus: In vivo Assay (II): half life of the prodrug after oral administration in dog. The conditions noted are these: whole blood, dog (n=3), orally administered at a dose equivalent to 2 mg/kg of the parent ethanol compound, LC/MS, read-out: half life (T1/2). On the procedure: (§1) 2-((4-(Benzo[d]thiazol-5-ylamino)-6-(tert-butylsulfonyl)quinazolin-7-yl)oxy)ethyl dihydrogen phosphate was orally administered at a dose equivalent to 2 mg/kg of 2-((4-(benzo[d]thiazol-5-ylamino)-6-(tert-butylsulfonyl)quinazolin-7-yl)oxy)ethanol to a series of test animals. Rats (n=2) and dogs (n=3) were administered 2-((4-(benzo[d]thiazol-5-ylamino)-6-(tert-butylsulfonyl)quinazolin-7-yl)oxy)ethyl dihydrogen phosphate, whereas minipigs (male Göttingen minipigs (n=3)) were administered 2-((4-(benzo[d]thiazol-5-ylamino)-6-(tert-butylsulfonyl)quinazolin-7-yl)oxy)ethyl disodium phosphate. Blood samples were taken from each test animal at intervals between 0 to 24 hrs (25 hrs in dog) after administration. The concentration 2-((4-(benzo[d]thiazol-5-ylamino)-6-(tert-butylsulfonyl)quinazolin-7-yl)oxy)ethanol in each sample was determined by LC/MS. The average blood concentrations of 2-((4-(benzo[d]thiazol-5-ylamino)-6-(tert-butylsulfonyl)quinazolin-7-yl)oxy)ethanol in each test species, following oral administration of 2-((4-(benzo[d]thiazol-5-ylamino)-6-(tert-butylsulfonyl)quinazolin-7-yl)oxy)ethyl dihydrogen phosphate or disodium phosphate are shown in FIG. 4.

Data set [2] is described as follows: In vivo Assay (II): half life of the prodrug after oral administration in rat. The conditions noted are these: whole blood, rat (n=2), orally administered at a dose equivalent to 2 mg/kg of the parent ethanol compound, LC/MS, read-out: half life (T1/2). On the procedure:
as §1

The nature of data set [3]: In vivo Assay (II): half life of the prodrug after oral administration in minipig. Set-up: species or system male Göttingen minipigs. The conditions noted are these: male, Göttingen, whole blood, minipig (n=3), orally administered at a dose equivalent to 2 mg/kg of the parent ethanol compound, LC/MS, read-out: half life (T1/2). Here is the method: as §1

These results are taken from US9586953B2, “Prodrugs of amino quinazoline kinase inhibitor” (GlaxoSmithKline Intellectual Property Development Limited, priority 2012, dated 2017).

For `CC(C)(C)S(=O)(=O)c1cc2c(Nc3ccc4scnc4c3)ncnc2cc1OCCOP(=O)(O)O` [Example 1, 2-((4-(Benzo[d]thiazol-5-ylamino)-6-(tert-butylsulfonyl)quinazolin-7-yl)oxy)ethyl dihydrogen phosphate], the half-life in data set [1] stood at 5 min; in data set [2], 15 min.

For `CC(C)(C)S(=O)(=O)c1cc2c(Nc3ccc4scnc4c3)ncnc2cc1OCCOP(=O)(O)O` [Example 2, 2-((4-(Benzo[d]thiazol-5-ylamino)-6-(tert-butylsulfonyl)quinazolin-7-yl)oxy)ethyl disodium phosphate], the half-life in data set [3] is 26 min.
